# Laboratory results: patent US8937167B2 (Washington University, priority 2009, dated 2015)
# Entries after “also recorded” stand apart in the source; their conditions may differ.
# Tests used:
# [1] = system: UTI89; experiment: Mouse UTI model, bladder bacterial titers (CFU); assay type: in vivo, E. coli (UPEC); host C3H/HeN mouse; conditions: UTI89; 6 hpi; mannoside IP 30 min prior and/or TMP-SMZ 3 days in drinking water
# Protocol: For mannoside treatment, bacteria were incubated with 1 mM ZFH56 prior to inoculation. Every 24 h for 3 days, mice were transurethrally inoculated with 1 mM ZFH56. For antibiotic treatment, mice were inoculated with UTI89 and immediately given antibiotics in the drinking water for 3 days. Antibiotics used were trimethoprim-sulfamethoxazole (SXT) at […], respectively. For dual treatment, bacteria were incubated with 1 mM ZFH56 prior to inoculation. Every 24 h for 3 days, mice were transurethrally inoculated with 1 mM ZFH56. Additionally, mice were immediately given antibiotics in the drinking water for 3 days as in the antibiotic only treatment. Urine was collected every day for 13 days. At 2 weeks, mice were sacrificed and bladders were titered.
# UTI89 biofilm was grown in LB+/− mannoside for 24 h at 22° C. in PVC plates and quantitated using crystal violet. UTI89 biofilm for confocal microscopy was grown in LB for 24 h at 22° C. on PVC coverslips. Mannoside was then added and biofilm was grown for an additional 16 h. Coverslips were then washed in PBS, fixed in 2% paraformaldehyde and stained with SYTO9 prior to confocal microscopy. For all animal experiments UTI89 or PBC-1 was grown 2×24 h statically in LB at 37° C. and inoculated at a dose of 1×10^7 bacteria in 50 μl. All mice used were female C3H/HeN (Jackson). For the pretreatment studies, bacteria were incubated with mannoside for 20 min prior to inoculation into the mouse. […] For CFU counts, bladders were harvested at 6 hpi and placed in 1 mL PBS. Bladders were then homogenized, diluted and plated on LB. After growth at 37° C. overnight, bacterial counts were determined. LacZ staining and gentamicin protection assays were performed at 6 hpi. […] Water was changed daily with fresh antibiotics. Standard growth curve assays and hemagglutination assays were performed with TMP-SMZ. All statistical analysis performed was a two-tailed Mann-Whitney U test.
# Animal infections. Bacteria were grown under type 1 pili-inducing conditions (2×24 h at 37° C. statically in LB). The bacteria were harvested and resuspended to an OD600 of 0.5 in PBS. Eight-week-old C3H/HeN (Harlan) female mice were anesthetized by inhalation of isoflurane and infected via transurethral catheterization with 50 μl of the bacterial suspension, resulting in 1-2×10^7 inoculum. At 6 hpi, mice were sacrificed by cervical dislocation under anesthesia and the bladders were immediately harvested and processed as described below. All animal studies using mice were approved by the Animal Studies Committee of Washington University (Animal Protocol Number 20100002).
# Bladder tissue bacterial titer determination. Mannoside ZFH-2056 was administered either IP (5 mg/kg) or orally (100 mg/kg) 30 min prior to inoculation with UTI89. […]
# [2] = system: UTI89; experiment: Ex vivo gentamicin protection assay of infected mouse bladders (luminal vs intracellular bacteria); assay type: in vivo, E. coli (UPEC); host mouse; conditions: IP 5 mg/kg pretreatment; 6 hpi
# Text: Based on the extensive elucidation of the UPEC pathogenic cascade, critical nodes in pathogenesis that mannosides would target and thereby have powerful and potent therapeutic ramifications were identified. The first step in the UPEC pathway involves FimH-mediated colonization of the bladder epithelium via the recognition of mannose receptors. Bacterial invasion into superficial bladder umbrella cells can then ensue. […] To test this, a well-established gentamicin protection assay that allows the determination of the luminally bound fraction versus the intracellular fraction was utilized (FIG. 10). […] This may be due to contamination from bacteria in the urine or bacteria that are non-specifically associated with the epithelium. In any case, blocking invasion blocks the ability of the bacteria to rapidly expand in numbers. This is due to the ability of the mannosides to block the IBC mechanism.
# Gentamicin protection assay. To enumerate bacteria present in the intracellular versus extracellular compartments, bladders were aseptically harvested at 6 hpi. The bladders were then bisected twice and washed three times in 500 μl of PBS each. The wash fractions were pooled, lightly spun at 500 rpm for 5 min to pellet exfoliated bladder cells, serially diluted, and plated onto LB agar to obtain the luminal fraction. The bladders were treated with 100 μg of gentamicin/ml for 90 min at 37° C. After treatment, the bladders were washed twice with PBS to eliminate residual gentamicin, homogenized in 1 ml of PBS, serially diluted, and plated onto LB agar to enumberate the CFUs in the intracellular fraction.
# To enumerate bacteria present in the intracellular versus extracellular compartments, bladders were aseptically harvested at 6 hpi. The bladders were then bisected twice and washed three times in 500 μl of PBS each. The wash fractions were pooled, lightly spun at 500 rpm for 5 min to pellet exfoliated bladder cells, serially diluted, and plated onto LB agar to obtain the luminal fraction. The bladders were treated with 100 μg of gentamicin/ml for 90 min at 37° C. […]
compound,measurement,setting,value
CNC(=O)c1cc(C(=O)NC)cc(-c2ccc(O[C@H]3O[C@H](CO)[C@@H](O)[C@H](O)[C@@H]3O)cc2)c1 [ZFH-2056],bladder bacterial CFUs,[1],significant drop in bacterial load
same,intracellular bacteria (CFUs after gentamicin treatment),[2],eliminated all CFUs; also recorded: significantly reduced
same,luminal bacteria,[2],significantly reduced
